Measurements published in patent publication US10179782B2, “Substituted sulfonamide compounds” (Genentech, Inc., priority 2016, dated 2019).

target: T1, human TRPA1 (Homo sapiens, UniProt O75762); assay: TRPA1 FLIPR Tetra calcium influx assay in CHO cells (block of cinnamaldehyde-induced calcium influx); type: cell-based; settings: Table 1; CHO cells expressing TRPA1; agonist cinnamaldehyde 75 uM; with vs without substituent at R2/R3; read-out: hTRPA1 CHO Ca2+ AUC EVO (IC50)
T1 construct: expressed in transfected cells; host or cells: CHO cells
Outline: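 CHO cells expressing TRPA1 were loaded with calcium dye in HBSS/20 mM HEPES, pH 7.4, 0.02% BSA, then given compound for 20 min at room temperature before ~EC80 cinnamaldehyde (75 µM human, 45 µM rat). Block of calcium influx was read on FLIPR Tetra; IC50 fitted with Hill coefficient fixed at 1.5.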

T1 sequence (O75762 whole entry): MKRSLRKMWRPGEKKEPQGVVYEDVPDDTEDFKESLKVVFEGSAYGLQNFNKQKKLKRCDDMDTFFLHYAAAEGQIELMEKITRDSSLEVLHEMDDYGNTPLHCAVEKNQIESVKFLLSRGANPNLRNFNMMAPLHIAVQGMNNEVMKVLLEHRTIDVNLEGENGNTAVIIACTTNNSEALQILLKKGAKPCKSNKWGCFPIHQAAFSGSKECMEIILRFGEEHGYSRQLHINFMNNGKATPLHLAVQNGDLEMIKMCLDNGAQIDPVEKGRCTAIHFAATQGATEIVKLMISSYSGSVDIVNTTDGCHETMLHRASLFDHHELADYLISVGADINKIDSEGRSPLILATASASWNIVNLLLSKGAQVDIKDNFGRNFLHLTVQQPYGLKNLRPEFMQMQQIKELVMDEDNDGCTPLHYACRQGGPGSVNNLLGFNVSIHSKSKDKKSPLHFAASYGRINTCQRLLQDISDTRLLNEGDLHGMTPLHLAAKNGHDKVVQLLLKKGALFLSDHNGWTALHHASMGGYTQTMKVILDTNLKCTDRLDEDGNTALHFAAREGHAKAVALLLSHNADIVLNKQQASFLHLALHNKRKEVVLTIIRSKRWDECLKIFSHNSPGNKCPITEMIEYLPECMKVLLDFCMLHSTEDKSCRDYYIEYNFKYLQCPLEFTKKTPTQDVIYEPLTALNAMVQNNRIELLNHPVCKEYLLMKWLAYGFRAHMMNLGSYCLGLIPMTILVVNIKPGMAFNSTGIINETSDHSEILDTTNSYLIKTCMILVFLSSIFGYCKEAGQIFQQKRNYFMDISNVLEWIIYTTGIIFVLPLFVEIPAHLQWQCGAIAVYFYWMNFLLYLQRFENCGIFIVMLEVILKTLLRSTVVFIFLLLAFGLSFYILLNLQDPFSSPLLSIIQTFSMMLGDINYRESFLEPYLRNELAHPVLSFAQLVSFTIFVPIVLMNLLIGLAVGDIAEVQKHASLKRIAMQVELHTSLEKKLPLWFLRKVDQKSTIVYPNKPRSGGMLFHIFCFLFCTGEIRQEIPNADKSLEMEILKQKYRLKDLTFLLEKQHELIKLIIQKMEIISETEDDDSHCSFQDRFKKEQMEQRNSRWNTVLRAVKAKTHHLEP

Structure (SMILES)	IC50 [nM]
C[C@H]1[C@H](F)C[C@@H](C(=O)NCc2cc(-c3cnc(C(F)(F)F)nc3)ncc2F)N1S(=O)(=O)c1ccc(F)cc1 [drawing 600, (2S,4R,5S)-4-fluoro-1-(4-fluorophenyl)sulfonyl-N-[[5-fluoro-2-[2-(trifluoromethyl)pyrimidin-5-yl]-4-pyridyl]methyl]-5-methyl-pyrrolidine-2-carboxamide]	2.01
C[C@H]1[C@H](F)C[C@@H](C(=O)NCc2cc(-c3cnc(C(F)(F)F)nc3)ncn2)N1S(=O)(=O)c1ccc(F)cc1 [drawing 602, (2S,4R,5S)-4-fluoro-1-(4-fluorophenyl)sulfonyl-5-methyl-N-[[6-[2-(trifluoromethyl)pyrimidin-5-yl]pyrimidin-4-yl]methyl]pyrrolidine-2-carboxamide]	21.9
C[C@H]1[C@H](F)C[C@@H](C(=O)NCc2cc(-c3cnc(C(F)(F)F)nc3)c(Cl)cn2)N1S(=O)(=O)c1ccc(F)cc1 [drawing 604, (2S,4R,5S)-N-[[5-chloro-4-[2-(trifluoromethyl)pyrimidin-5-yl]-2-pyridyl]methyl]-4-fluoro-1-(4-fluorophenyl)sulfonyl-5-methyl-pyrrolidine-2-carboxamide]	4.31
C[C@H]1[C@H](F)C[C@@H](C(=O)NCc2ccnc(-c3cnc(C(F)(F)F)nc3)c2)N1S(=O)(=O)c1ccc(F)cc1 [drawing 606, (2S,4R,5S)-4-fluoro-1-(4-fluorophenyl)sulfonyl-5-methyl-N-[[2-[2-(trifluoromethyl)pyrimidin-5-yl]-4-pyridyl]methyl]pyrrolidine-2-carboxamide]	19.5

same assay, conditions: Table 2; CHO cells expressing TRPA1; agonist cinnamaldehyde 75 uM; 20 min compound incubation; Hill coefficient fixed to 1.5; read-out: hTRPA1 CHO Ca2+ AUC EVO (IC50)

Structure (SMILES)	IC50 [nM]
C[C@H]1[C@H](F)C[C@@H](C(=O)N(COP(=O)(O)O)Cc2cc(-c3cnc(C(F)(F)F)nc3)ncc2F)N1S(=O)(=O)c1ccc(F)cc1 [Example 157, Sodium ((2S,4R,5S)-4-fluoro-N-((5-fluoro-2-(2-(trifluoromethyl)pyrimidin-5-yl)pyridin-4-yl)methyl)-1-((4-fluorophenyl)sulfonyl)-5-methylpyrrolidine-2-carboxamido)methyl phosphate]	1200
C[C@H]1[C@H](F)C[C@@H](C(=O)NCc2cc(-c3cnc(C(F)(F)F)nc3)ncc2C(F)(F)F)N1S(=O)(=O)c1cncc(F)c1 [Example 159, (2S,4R,5S)-4-fluoro-1-[(5-fluoro-3-pyridyl)sulfonyl]-5-methyl-N-[[5-(trifluoromethyl)-2-[2-(trifluoromethyl)pyrimidin-5-yl]-4-pyridyl]methyl]pyrrolidine-2-carboxamide]	2.31
C[C@H]1[C@H](F)C[C@@H](C(=O)NCc2cc(-c3cnc(C(F)(F)F)nc3)ncc2C(F)(F)F)N1S(=O)(=O)c1ccc(C#N)nc1 [Example 160, (2S,4R,5S)-1-[(6-cyano-3-pyridyl)sulfonyl]-4-fluoro-5-methyl-N-[[5-(trifluoromethyl)-2-[2-(trifluoromethyl)pyrimidin-5-yl]-4-pyridyl]methyl]pyrrolidine-2-carboxamide]	7.27
C[C@H]1[C@H](F)C[C@@H](C(=O)NCc2cc(-c3cnc(C(F)(F)F)nc3)ncc2C(F)(F)F)N1S(=O)(=O)c1ccc(Cl)nc1 [Example 161, (2S,4R,5S)-1-[(6-chloro-3-pyridyl)sulfonyl]-4-fluoro-5-methyl-N-[[5-(trifluoromethyl)-2-[2-(trifluoromethyl)pyrimidin-5-yl]-4-pyridyl]methyl]pyrrolidine-2-carboxamide]	1.96
C[C@H]1[C@H](F)C[C@@H](C(=O)NCc2cc(-c3cnc(C(F)(F)F)nc3)cnc2C(F)F)N1S(=O)(=O)c1ccc(F)cc1 [Example 162, (2S,4R,5S)-N-[[2-(difluoromethyl)-5-[2-(trifluoromethyl)pyrimidin-5-yl]-3-pyridyl]methyl]-4-fluoro-1-(4-fluorophenyl)sulfonyl-5-methyl-pyrrolidine-2-carboxamide]	2.34
